Measured values as given in ChEMBL document CHEMBL1201862, “PubChem BioAssay data set” (2004).
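Each compound was tested at five concentrations against cells in 96-well plates for 48 hours. Abbreviation: GI50, concentration required for 50% inhibition of growth.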 Active and inactive are the calls of the source. Rule as the data show it: active = GI50 up to about 1.1 µM and inactive = higher.

Tests used:
Assay in all cases: DTP human tumour cell line panel, 48 h
[1] = tested on: MOLT-4
[2] = tested on: HCT-15
[3] = tested on: OVCAR-5
[4] = tested on: NCI-H226
[5] = tested on: NCI-H460
[6] = tested on: A549
[7] = tested on: NCI/ADR-RES
[8] = tested on: DU-145
[9] = tested on: SK-MEL-2
[10] = tested on: HOP-92
[11] = tested on: Malme-3M
[12] = tested on: RPMI-8226
[13] = tested on: A498
[14] = tested on: SK-MEL-28
[15] = tested on: SF-268
[16] = tested on: 786-0
[17] = tested on: SNB-19
[18] = tested on: Hs-578T
[19] = tested on: HCT-116
[20] = tested on: SK-MEL-5
[21] = tested on: OVCAR-4
[22] = tested on: UACC-62
[23] = tested on: MCF7
[24] = tested on: T47D
[25] = tested on: OVCAR-8
[26] = tested on: IGROV-1
[27] = tested on: NCI-H522
[28] = tested on: U-251
[29] = tested on: UACC-257
[30] = tested on: KM12
[31] = tested on: OVCAR-3
[32] = tested on: HCC 2998
[33] = tested on: SW-620
[34] = tested on: ACHN
[35] = tested on: HT-29
[36] = tested on: COLO 205
[37] = tested on: SF-295
[38] = tested on: TK-10
[39] = tested on: PC-3
[40] = tested on: NCI-H23
[41] = tested on: SK-OV-3
[42] = tested on: LOX IMVI
[43] = tested on: SN12C
[44] = tested on: UO-31
[45] = tested on: BT-549
[46] = tested on: MDA-MB-435
[47] = tested on: MDA-N
[48] = tested on: EKVX
[49] = tested on: SF-539
[50] = tested on: M14
[51] = tested on: K562
[52] = tested on: HL-60
[53] = tested on: CAKI-1
[54] = tested on: MDA-MB-231
[55] = tested on: SNB-75
[56] = tested on: RXF 393
[57] = tested on: CCRF-CEM

## CC(=O)OCCn1c(Cc2ccc(C)cc2)nn(C(C)=O)c1=O
[1]
  GI50: > 100 µM (inactive)
[2]
  GI50: > 100 µM
[3]
  GI50: > 100 µM (inactive)
[4]
  GI50: > 100 µM (inactive)
[5]
  GI50: > 100 µM (inactive)
[6]
  GI50: > 100 µM (inactive)
[7]
  GI50: > 100 µM (inactive)
[8]
  GI50: > 100 µM (inactive)
[9]
  GI50: > 100 µM (inactive)
[10]
  GI50: > 100 µM (inactive)
[11]
  GI50: > 100 µM (inactive)
[12]
  GI50: > 100 µM (inactive)
[13]
  GI50: > 100 µM (inactive)
[14]
  GI50: > 100 µM (inactive)
[15]
  GI50: > 100 µM (inactive)
[16]
  GI50: > 100 µM (inactive)
[17]
  GI50: > 100 µM (inactive)
[18]
  GI50: > 100 µM (inactive)
[19]
  GI50: > 100 µM (inactive)
[20]
  GI50: > 100 µM (inactive)
[21]
  GI50: > 100 µM (inactive)
[22]
  GI50: > 100 µM (inactive)
[23]
  GI50: > 100 µM (inactive)
[24]
  GI50: > 100 µM (inactive)
[25]
  GI50: > 100 µM (inactive)
[26]
  GI50: > 100 µM (inactive)
[27]
  GI50: > 100 µM (inactive)
[28]
  GI50: > 100 µM (inactive)
[29]
  GI50: > 100 µM (inactive)
[30]
  GI50: > 100 µM (inactive)
[31]
  GI50: > 100 µM (inactive)
[32]
  GI50: > 100 µM (inactive)
[33]
  GI50: > 100 µM (inactive)
[34]
  GI50: > 100 µM (inactive)
[35]
  GI50: > 100 µM (inactive)
[36]
  GI50: > 100 µM (inactive)
[37]
  GI50: > 100 µM (inactive)
[38]
  GI50: > 100 µM (inactive)
[39]
  GI50: > 100 µM (inactive)
[40]
  GI50: > 100 µM (inactive)
[41]
  GI50: > 100 µM (inactive)
[42]
  GI50: > 100 µM (inactive)
[43]
  GI50: > 100 µM (inactive)
[44]
  GI50: > 100 µM (inactive)
[45]
  GI50: > 100 µM (inactive)
[46]
  GI50: > 100 µM (inactive)
[47]
  GI50: > 100 µM (inactive)
[48]
  GI50: > 100 µM (inactive)
[49]
  GI50: > 100 µM (inactive)
[50]
  GI50: > 100 µM (inactive)
[51]
  GI50: > 100 µM (inactive)
[52]
  GI50: > 100 µM (inactive)
[53]
  GI50: > 100 µM (inactive)
[54]
  GI50: > 100 µM (inactive)

## O=C1CC(NC(=O)C(F)(F)F)c2c(Br)sc(N3CCNCC3)c21 (stereo not given)
[1]
  GI50: > 100 µM (inactive)
[2]
  GI50: > 100 µM
[3]
  GI50: > 100 µM (inactive)
[4]
  GI50: > 100 µM (inactive)
[5]
  GI50: > 100 µM (inactive)
[6]
  GI50: > 100 µM (inactive)
[7]
  GI50: > 100 µM (inactive)
[8]
  GI50: > 100 µM (inactive)
[9]
  GI50: 13.2 µM (inactive)
[10]
  GI50: 53 µM (inactive)
[11]
  GI50: > 100 µM (inactive)
[13]
  GI50: > 100 µM (inactive)
[14]
  GI50: > 100 µM (inactive)
[15]
  GI50: > 100 µM (inactive)
[16]
  GI50: > 100 µM (inactive)
[17]
  GI50: > 100 µM (inactive)
[18]
  GI50: > 100 µM (inactive)
[19]
  GI50: > 100 µM (inactive)
[55]
  GI50: > 100 µM (inactive)
[20]
  GI50: > 100 µM (inactive)
[21]
  GI50: > 100 µM (inactive)
[22]
  GI50: > 100 µM (inactive)
[23]
  GI50: > 100 µM (inactive)
[24]
  GI50: > 100 µM (inactive)
[25]
  GI50: > 100 µM (inactive)
[26]
  GI50: > 100 µM (inactive)
[27]
  GI50: > 100 µM (inactive)
[28]
  GI50: > 100 µM (inactive)
[56]
  GI50: > 100 µM (inactive)
[29]
  GI50: > 100 µM (inactive)
[57]
  GI50: > 100 µM (inactive)
[30]
  GI50: > 100 µM (inactive)
[31]
  GI50: > 100 µM (inactive)
[32]
  GI50: > 100 µM (inactive)
[33]
  GI50: > 100 µM (inactive)
[34]
  GI50: > 100 µM (inactive)
[35]
  GI50: 85.7 µM (inactive)
[36]
  GI50: > 100 µM (inactive)
[37]
  GI50: > 100 µM (inactive)
[38]
  GI50: > 100 µM (inactive)
[39]
  GI50: > 100 µM (inactive)
[40]
  GI50: > 100 µM (inactive)
[41]
  GI50: > 100 µM (inactive)
[42]
  GI50: > 100 µM (inactive)
[43]
  GI50: > 100 µM (inactive)
[44]
  GI50: 61.4 µM (inactive)
[45]
  GI50: > 100 µM (inactive)
[46]
  GI50: > 100 µM (inactive)
[47]
  GI50: > 100 µM (inactive)
[48]
  GI50: > 100 µM (inactive)
[49]
  GI50: > 100 µM (inactive)
[50]
  GI50: > 100 µM (inactive)
[51]
  GI50: > 100 µM (inactive)
[52]
  GI50: > 100 µM (inactive)
[53]
  GI50: > 100 µM (inactive)
[54]
  GI50: > 100 µM (inactive)
